What was measured:
TA 100 = experiment: Ames test; format: cell-based, Salmonella typhimurium
Method: (§1) Ames test. Genotoxicity of the compounds was determined by Ames Kit (IPHASE, Beijing, China) containing Salmonella typhimurium (TA97a, TA98, TA100, and TA1535) and E. coli WP2 uvrA (pKM101). Diclofenac and 2-aminofluorene were used as positive controls for TA97a and TA98. Methyl methanesulfonate and 2-aminofluorene were used as positive controls for TA100. Methyl methanesulfonate and 2-aminoanthracene were used as positive controls for WP2 uvrA (pKM101). NaN3 and 2-aminoanthracene were used as positive controls for TA1535. The bottom and top layer culture medium, and S9 mixed solution were prepared according to the manufacturer’s instructions. After incubation at 37℃ for 48h, the colonies were counted.

WP2uvrA (pKM101) = experiment: Ames test; format: cell-based, E. coli
Method: as §1

S. aureus ATCC 43300 = experiment: Consecutive resistance inducing assay; format: cell-based; conditions: sub-MIC (1/2×MIC), after 20 days of treatment
Method: Resistance inducing assay. Consecutive and one-step resistance experiments were performed to assess the resistance-inducing ability of the compounds against S. aureus. For consecutive resistance assay, the MICs of compounds and ciprofloxacin (CIP) were determined on the first day. […] […] […] And the antimicrobial activity of the compounds against the CIP-induced strains were assessed by microdilution assay as described above. For one-step resistance assay, overnight cultured S. aureus was adjusted to a final concentration of approximately OD630=0.5 with sterile saline. One hundred microliters of the bacterial suspension were uniformly spread in pre-prepared MH agar plates containing a specific concentration of compounds. Rifampicin (RFP) was used as a positive control. The viable cells were counted on the plates after incubation at 37°C for 48h. The frequency of spontaneous drug resistance mutation was defined as the ratio of the number of resistant CFU counts to the initial CFU counts^3.

[1] = Liver microsomal metabolism analysis; format: in vitro ADME; conditions: human; liver microsomes in vitro
Method: Liver microsomal metabolism analysis. Human liver microsome (20 mg protein/mL) was purchased from IPHASE (Beijing, China). One microliter of C218-0546 or STK848198 (200 μM) was incubated with 2 μL of liver microsome in the presence or absence of NADPH. Phenacetin (100 μM) was used as a positive control. After incubation at 37℃ for 0, 15, 30, 45, 60 and 90 min, respectively, the samples were cooled on ice and added with 500 μL of stop solution. The remained compounds were quantified with a LC-MS (Triple Quad™ 5500, AB SCIEX, USA).

FtsH = FtsH (Staphylococcus aureus, UniProt Q2G0R0); experiment: Surface plasmon resonance (SPR); format: binding, S. aureus ATCC 43300; conditions: 25 °C
Method: Surface plasmon resonance (SPR). To detect the affinity between the small molecular compounds and FtsH, SPR analyses were performed on a multiple flow cell Biacore T200 instrument (Cytiva, the United States). Briefly, FtsH (35.5 µg/mL in 10 mM sodium acetate buffer, pH= 4.0) was covalently immobilized on a dextran matrix CM5 sensor chip surface in three different flow cells. The excessive active groups on the dextran matrix were blocked using 1 M ethanolamine at the velocity of 10 μL/min for 15 min. The uncoated reference flow cell on the fourth flow cell was prepared on the dextran matrix treated as described above but without any ligand. 1×PBS (pH 7.4) containing 2 mM KH2PO4, 137 mM NaCl, 10 mM Na2HPO4, 2.7 mM KCl and 5%DMSO was used as the running buffer. In the running buffer, a 2-fold serially diluted of compounds was passed over the ligand at a flow rate of 30 µL/min. The sensorgrams were recorded at 25 °C. The response units at the steady state were fitted to the Langmuir equation to yield the Kd values^35.
Protein synthesis and purification. The primers in this study were designed according to the sequence of S. aureus ATCC 43300 genome published on NCBI. […] Finally, the target protein was detected by SDS-PAGE. […]

Chain of FtsH (Q2G0R0 entry or part of it): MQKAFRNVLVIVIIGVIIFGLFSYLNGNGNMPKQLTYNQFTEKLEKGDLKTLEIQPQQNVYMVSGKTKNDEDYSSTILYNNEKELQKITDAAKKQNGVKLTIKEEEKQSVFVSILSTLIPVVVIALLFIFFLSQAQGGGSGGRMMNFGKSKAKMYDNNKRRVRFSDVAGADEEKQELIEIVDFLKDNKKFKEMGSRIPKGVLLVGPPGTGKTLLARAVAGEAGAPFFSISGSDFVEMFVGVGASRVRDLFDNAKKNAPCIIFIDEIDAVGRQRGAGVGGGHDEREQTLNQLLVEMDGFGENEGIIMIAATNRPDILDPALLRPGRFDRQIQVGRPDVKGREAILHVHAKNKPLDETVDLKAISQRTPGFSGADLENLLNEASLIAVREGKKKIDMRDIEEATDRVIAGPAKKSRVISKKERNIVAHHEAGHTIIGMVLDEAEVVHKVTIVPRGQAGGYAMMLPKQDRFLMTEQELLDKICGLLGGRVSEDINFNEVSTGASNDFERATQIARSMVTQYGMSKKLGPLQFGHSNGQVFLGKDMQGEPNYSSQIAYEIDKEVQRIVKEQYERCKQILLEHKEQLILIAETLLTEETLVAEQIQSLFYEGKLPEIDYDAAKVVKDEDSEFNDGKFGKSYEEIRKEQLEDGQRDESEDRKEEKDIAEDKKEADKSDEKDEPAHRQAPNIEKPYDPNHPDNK

Cc1nc2c(-c3ccc(Cl)cc3)cnn2c(O)c1Cc1ccccc1 [STK848198]
CFU(x±SD) (TA 100; TA 100, +S9, 25 μg/well): 8 ±2 CFU
Fold Change (TA 100; TA 100, +S9, 25 μg/well): 0.2
CFU(x±SD) (TA 100; TA 100, +S9, 50 μg/well): 7 ±1 CFU
Fold Change (TA 100; TA 100, +S9, 50 μg/well): 0.2
CFU(x±SD) (TA 100; TA 100, +S9, 100 μg/well): 9 ±3 CFU
Fold Change (TA 100; TA 100, +S9, 100 μg/well): 0.3
CFU(x±SD) (TA 100; TA 100, +S9, 200 μg/well): 8±3 CFU
Fold Change (TA 100; TA 100, +S9, 200 μg/well): 0.2
CFU(x±SD) (TA 100; TA 100, +S9, 400 μg/well): 8 ±2 CFU
Fold Change (TA 100; TA 100, +S9, 400 μg/well): 0.2
CFU(x±SD) (TA 100; TA 100, -S9, 25 μg/well): 5±2 CFU
Fold Change (TA 100; TA 100, -S9, 25 μg/well): 0.2
CFU(x±SD) (TA 100; TA 100, -S9, 50 μg/well): 6±2 CFU
Fold Change (TA 100; TA 100, -S9, 50 μg/well): 0.2
CFU(x±SD) (TA 100; TA 100, -S9, 100 μg/well): 5±2 CFU
Fold Change (TA 100; TA 100, -S9, 100 μg/well): 0.1
CFU(x±SD) (TA 100; TA 100, -S9, 200 μg/well): 9±3 CFU
Fold Change (TA 100; TA 100, -S9, 200 μg/well): 0.3
CFU(x±SD) (TA 100; TA 100, -S9, 400 μg/well): 4±2 CFU
Fold Change (TA 100; TA 100, -S9, 400 μg/well): 0.1
CFU(x±SD) (WP2uvrA (pKM101); +S9, 25 μg/well): 29 ±4 CFU
Fold Change (WP2uvrA (pKM101); +S9, 25 μg/well): 0.9
CFU(x±SD) (WP2uvrA (pKM101); +S9, 50 μg/well): 26 ±4 CFU
Fold Change (WP2uvrA (pKM101); +S9, 50 μg/well): 0.8
CFU(x±SD) (WP2uvrA (pKM101); +S9, 100 μg/well): 26 ±3 CFU
Fold Change (WP2uvrA (pKM101); +S9, 100 μg/well): 0.8
CFU(x±SD) (WP2uvrA (pKM101); +S9, 200 μg/well): 29 ±3 CFU
Fold Change (WP2uvrA (pKM101); +S9, 200 μg/well): 0.9
CFU(x±SD) (WP2uvrA (pKM101); +S9, 400 μg/well): 28 ±3 CFU
Fold Change (WP2uvrA (pKM101); +S9, 400 μg/well): 0.9
CFU(x±SD) (WP2uvrA (pKM101); -S9, 25 μg/well): 22±2 CFU
Fold Change (WP2uvrA (pKM101); -S9, 25 μg/well): 1
CFU(x±SD) (WP2uvrA (pKM101); -S9, 50 μg/well): 23±4 CFU
Fold Change (WP2uvrA (pKM101); -S9, 50 μg/well): 1
CFU(x±SD) (WP2uvrA (pKM101); -S9, 100 μg/well): 21±1 CFU
Fold Change (WP2uvrA (pKM101); -S9, 100 μg/well): 0.9
CFU(x±SD) (WP2uvrA (pKM101); -S9, 200 μg/well): 24±3 CFU
Fold Change (WP2uvrA (pKM101); -S9, 200 μg/well): 1
CFU(x±SD) (WP2uvrA (pKM101); -S9, 400 μg/well): 23±1 CFU
Fold Change (WP2uvrA (pKM101); -S9, 400 μg/well): 1
MIC increasement after sub-MIC treatment (S. aureus ATCC 43300): 0 fold
half-life [1]: 43.6 min
Kd (FtsH): 31 µM
